A short description of series [1]: physchem. Conditions: octanol/water, pH 7.4.
Series [2] in a line: physchem. Particulars: buffer.

Among the data in ChEMBL document CHEMBL1134447 (J Med Chem, 2001) are logD and solubility values, retold here.

A word on the logD: it is lipophilicity at a set pH, counting ionised and neutral species. A high value points to a more lipophilic compound. In general, solubility refers to the concentration that dissolves in the medium under given conditions. A lower solubility goes with a poorly soluble substance.

The compound `O=C(OCc1cc2c(cc1Cl)OCO2)N1CCC(n2c(O)nc3ccccc32)CC1` gave a logD in series [1] of 4.2. The solubility in series [2] was less than 10 µM.

`O=C(OC1CCc2ccccc21)N1CCC2(CC1)C(=O)NCN2c1ccccc1` (stereo not drawn) displayed a logD in series [1] greater than 4. Besides, the solubility in series [2] is less than 10 µM.

The compound `O=C(OCc1cccc(Oc2ccccc2)c1)N1CCC2(CC1)C(=O)NCN2c1ccccc1` showed a logD in series [1] greater than 4. Besides, the solubility in series [2] was less than 10 µM.

`O=C(NCCCn1c(=O)[nH]c2ccccc21)OCc1cc2c(cc1Cl)OCO2` returned a logD in series [1] greater than 4. In series [2], this compound yielded a solubility of less than 10 µM.
